US20240287054A1, “COMPOUNDS THAT BIND NON-CANONICAL G-QUADRUPLEX STRUCTURES AND METHODS OF MAKING AND USING THE SAME” (The U.S.A., as Represented by the Secretary, Department of …, priority 2021, published 2024)
Each block holds one compound with its values, some of them ahead of it.

Key:
[1] = tested on: MYCNOS001 and MYCNOS002 transcripts; test: qRT-PCR of MYCNOS transcripts in NBEB cells; format: cell-based
Experimental: To examine the effects of G4-binding compounds on NBEB cells, live-cell imaging was performed using an Incucyte interface (described below). NBEB (5K/well), cells were seeded into 96-well plates in triplicate, treated with compound MY-8 at various concentrations (0-45 μM), and cultured until control wells reached confluence. […] To validate cell viability, a Trypan Blue exclusion test was performed following treatment at 48 h and 96 h post treatment and the proportion of live versus dead cells was calculated using a hemocytometer.
Quantitative RT-PCR. Total RNA was extracted from NBEB cells according to manufacturer's instructions (RNeasy Plus Mini Extraction kit (#74134) (Qiagen, CA). RNA (1 μg) was reverse transcribed into cDNA using the cDNA synthesis High-Capacity RNA-to-cDNA™ Kit. Quantitative PCR was performed using Fast SYBR™ Green Master Mix according to the manufacturer's protocol. Beta-actin was used as a housekeeping gene. Relative expression was calculated using the 2(−ΔCt) method. The qPCR primer sequences can be found in supplementary materials.

HIV HP-G4 = test: FIA binding test with HIV HP-G4 ((3+1) hybrid structure)
Experimental: In this study, FIA was used for validating the bindings between certain bivalent and MYCN G4 oligos. To measure the binding affinity, a solution of each compound was prepared in triplicate in a 96 well-plate (Costar, black side clear bottom), resulting in a final concentration of 100 nM (5% final DMSO in the working solution). Unlabeled MYCN G4 DNA was folded based on the above-mentioned annealing method, then added into the well plate resulting in different concentrations by a seral dilution. The plate was incubated at room temperature for 30 min, followed by centrifuging at 500 rpm for 2 minutes. The fluorescence intensity was then quantitatively recorded by a Synergy Mx microplate reader (BioTek) at Ex 340 nm/Em 500 nm. The fluorescence intensities were then normalized, and the binding affinity was calculated by fitting the curve using one-site total model in GraphPad Prism 8.3.1 software.
In addition to the DMS-footprinting study, the bivalent binding mode of compound B33 toward MYCN hairpin-G4 was also investigated by comparing HP-G4s with different folding types. Four reported HP-G4s with parallel structure (BCL2), (3+1) hybrid structure (HIV and PIM1-form1), and (2+2) chair-type structure (PIM1-form2) were examined by FIA binding test using compound B33 (FIGS. 41A, 41B, 42A, 42B, 43A, 43B, 44A, and 44B). […]

[2] = tested on: MYCN G4 DNA (hairpin minor groove); test: Fluorescence displacement assay with Hoechst 33258; format: binding, human
Experimental: Fluorescence displacement assay. Fluorescence displacement assays were carried out by using two classical minor groove binders (Hoechst 33258 and netropsin). Hoechst 33258, as a fluorophore, was prepared at 5 μM concentration in the buffer (10 mM Tris, pH7.0, 100 mM KCl), and then titrated with different concentrations of unlabeled MYCN G4 oligonucleotides. For displacement, either compound MY-1 or netropsin was added into the solution resulting in a final concentration of 5 μM or 50 μM. Fluorescence signals were obtained with an excitation wavelength of 352 nm and an emission wavelength of 500 nm.

MYCN G4 DNA = test: SPR competitive binding assay on MYCN G4; set-up: species or system human
Experimental: Based on this unexpected observation, and without being bound to a single theory, it currently is believed that the two compounds might bind to MYCN G4 on different sites. To investigate, a competitive assay on SPR was performed by injecting the compounds step-wise in a designated order or injecting a mixture (Brooks et al., Drug Discovery Today 2014, 19:1040-1044; Spurny et al., PNAS 112:E2543-2552). […] Next, TMPyP4, a classical stacking G4-binder (Seenisamy, JACS 2004, 126:8702-8709), was also tested together with MY-1. […] In addition, a CD melting assay was also performed using either MY-1 or a mixture of two hits (1 and MY-1).

[3] = NBEB cells, 24, 36, 48 h, higher concentrations

Structure (SMILES): COc1ccc(-c2noc(-c3ccc(NCCCN4CCCCCC4)nn3)n2)cc1 [MY-8, N-(3-(azepan-1-yl)propyl)-6-(3-(4-methoxyphenyl)-1,2,4-oxadiazol-5-yl)pyridazin-3-amine]
MYCNOS001 mRNA level [1, 3]: clear decreases of mRNA level
MYCNOS002 mRNA level [1, 3]: clear decreases of mRNA level
onset of MYCNOS002 decrease ([1]; NBEB cells, time course): decreased as early as 24 h

Structure (SMILES): COc1ccc(-c2noc(-c3ccc(NCCCNc4c5ccc(Cl)cc5nc5ccc(OC)cc45)nn3)n2)cc1 [B33, N^1-(6-chloro-2-methoxyacridin-9-yl)-N^3-(6-(3-(4-methoxyphenyl)-1,2,4-oxadiazol-5-yl)pyridazin-3-yl)propane-1,3-diamine]
Kd (HIV HP-G4): 151 ± 26 nM

displacement of Hoechst 33258 at 5 μM ([2]; 5 μM competitor): no measurable change
displacement of Hoechst 33258 at 50 μM ([2]; 50 μM competitor): partial fluorescence decrease
binding level of MY-1 after injection of 1 (MYCN G4 DNA; 100 μM of 1 followed by 100 μM of MY-1, also 500 μM of 1): not significantly changed
SPR binding signal on addition of MY-1 to TMPyP4 solution (MYCN G4 DNA; MY-1 100 μM and 250 μM in TMPyP4 solution): increase of SPR binding signals
Structure (SMILES): COc1ccc(-c2noc(-c3ccc(NCCCN4CCCC4)nn3)n2)cc1 [MY-1, 6-(3-(4-methoxyphenyl)-1,2,4-oxadiazol-5-yl)-N-(3-(pyrrolidin-1-yl)propyl)pyridazin-3-amine]
